Data published in patent publication EP1718648B1, “TRICYCLIC IMIDAZOPYRIDINES AND INTERMEDIATES FOR THE SYNTHESIS THEREOF” (Nycomed GmbH, priority 2004, dated 2005).

tested on: pentagastrin-stimulated acid secretion of the perfused rat stomach; assay: Testing of the secretion-inhibiting action on the perfused rat stomach; details: Dose 1.0 µmol/kg i.d. (intraduodenal), in vivo; anesthetized CD rat, female; pentagastrin 1 µg/kg i.v. continuous infusion
Excerpt: The compounds of the formula 2 according to the invention investigated in the model mentioned below have been provided with letters which correspond to the letters of these compounds in the examples.
In Table A which follows, the influence of the compounds of the formula 2 according to the invention on the pentagastrin-stimulated acid secretion of the perfused rat stomach after intraduodenal administration in vivo is shown. Table A
The abdomen of anesthetized rats (CD rat, female, 200-250 g; 1.5 g/kg i.m. urethane) was opened after tracheotomy by a median upper abdominal incision and a PVC catheter was fixed transorally in the esophagus and another via the pylorus such that the ends of the tubes just projected into the gastric lumen. The catheter leading from the pylorus led outward into the right abdominal wall through a side opening.
After thorough rinsing (about 50-100 ml), warm (37°C) physiological NaCl solution was continuously passed through the stomach (0.5 ml/min, pH 6.8-6.9; Braun-Unita I). The pH (pH meter 632, glass electrode EA 147; φ = 5 mm, Metrohm) and, by titration with a freshly prepared 0.01 N NaOH solution to pH 7 (Dosimat 665 Metrohm), the secreted HCl were determined in the effluent in each case collected at an interval of 15 minutes.
The gastric secretion was stimulated by continuous infusion of 1 µg/kg (=1.65 ml/h) of i.v. pentagastrin (left femoral vein) about 30 min after the end of the operation (i.e. after determination of 2 preliminary fractions). The substances to be tested were administered intraduodenally in a 2.5 ml/kg liquid volume 60 min after the start of the continuous pentagastrin infusion.
The body temperature of the animals was kept at a constant 37.8-38°C by infrared irradiation and heat pads (automatic, stepless control by means of a rectal temperature sensor).

SMILES | Inhibition of acid secretion (%)
Cc1nc2c3c(c(C(N)=O)cn2c1C)CC[C@H](c1ccccc1)N3 [p, (8R)-2,3-Dimethyl-8-phenyl-6,7,8,9-tetrahydro-1,3a,9-triaza-cyclopenta[a]naphthalene-5-carboxylic Acid Amide] | < 50
Cc1nc2c3c(c(C(N)=O)cn2c1C)CC[C@@H](c1ccccc1)N3 [q, (8S)-2,3-Dimethyl-8-phenyl-6,7,8,9-tetrahydro-1,3a,9-triaza-cyclopenta[a]naphthalene-5-carboxylic Acid Amide] | >50
Cc1nc2c3c(c(C(=O)N(C)C)cn2c1C)CC[C@H](c1ccccc1)N3 [k, (8R)-2,3-Dimethyl-8-phenyl-6,7,8,9-tetrahydro-1,3a,9-triaza-cyclopenta[a]naphthalene-5-carboxylic Acid Dimethylamide] | < 50
CNC(=O)c1cn2c(C)c(C)nc2c2c1CC[C@H](c1ccccc1)N2 [l, (8R)-2,3-Dimethyl-8-phenyl-6,7,8,9-tetrahydro-1,3a,9-triaza-cyclopenta[a]naphthalene-5-carboxylic Acid Methylamide] | < 50
CNC(=O)c1cn2c(C)c(C)nc2c2c1CCC(c1ccccc1)N2 (stereo not drawn) [c, 2,3-Dimethyl-8-phenyl-6,7,8,9-tetrahydro-1,3a,9-triaza-cyclopenta[a]naphthalene-5-carboxylic Acid Methylamide] | > 50
Cc1nc2c3c(c(C(=O)NC4CC4)cn2c1C)CC[C@H](c1ccccc1)N3 [n, (8R)-2,3-Dimethyl-8-phenyl-6,7,8,9-tetrahydro-1,3a,9-triaza-cyclopenta[a]naphthalene-5-carboxylic Acid Cyclopropylamide] | < 50
CNC(=O)c1cn2c(C)c(C)nc2c2c1CC[C@@H](c1ccccc1)N2 [m, (8S)-2,3-Dimethyl-8-phenyl-6,7,8,9-tetrahydro-1,3a,9-triaza-cyclopenta[a]naphthalene-5-carboxylic Acid Methylamide] | > 50
Cc1nc2c3c(c(C(=O)N(C)C)cn2c1C)CCC(c1ccccc1)N3 (stereo not drawn) [e, 2,3-Dimethyl-8-phenyl-6,7,8,9-tetrahydro-1,3a,9-triaza-cyclopenta[a]naphthalene-5-carboxylic Acid Dimethylamide] | > 50
Cc1nc2c3c(c(C(=O)NC4CC4)cn2c1C)CC[C@@H](c1ccccc1)N3 [o, (8S)-2,3-Dimethyl-8-phenyl-6,7,8,9-tetrahydro-1,3a,9-triaza-cyclopenta[a]naphthalene-5-carboxylic Acid Cyclopropylamide] | > 50
Cc1nc2c3c(c(C(=O)N4CCCC4)cn2c1C)CCC(c1ccccc1)N3 (stereo not drawn) [h, 1-(2,3-Dimethyl-8-phenyl-6,7,8,9-tetrahydro-1,3a,9-triaza-cyclopenta[a]naphthalen-5-yl)-1-pyrrolidin-1-yl-methanone] | > 50
Cc1nc2c3c(c(C(=O)N(C)C)cn2c1C)CC[C@@H](c1ccccc1)N3 [j, (8S)-2,3-Dimethyl-8-phenyl-6,7,8,9-tetrahydro-1,3a,9-triaza-cyclopenta[a]naphthalene-5-carboxylic Acid Dimethylamide] | > 50
Cc1nc2c3c(c(C(N)=O)cn2c1C)CCC(c1ccccc1)N3 (stereo not drawn) [f, 2,3-Dimethyl-8-phenyl-6,7,8,9-tetrahydro-1,3a,9-triaza-cyclopenta[a]naphthalene-5-carboxylic Acid Amide] | > 50
